For the test, the system named is AMP-activated protein kinase (AMPK). Description: ADP Quest assay for AMPK activators. The format is biochemical. Further details: key: fold AMPK activation with vs without activator at 30 µM. Particulars: fold of AMPK activation to phosphorylate SAMS peptide without and with an activator at the concentration of 30 µM. Summed up:
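AMPK phosphorylation of SAMS peptide with ATP monitored kinetically at room temperature by ADP Quest fluorescence (ex 530/em 590 nm), reaction started with enzyme. Compounds tested […] in 2-fold dilutions, AMP as reference. E30 is fold activation at 30 µM activator versus none.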

The source of these data is patent publication US8586747B2, “3,3-dimethyl tetrahydroquinoline derivatives” (Hoffmann-La Roche Inc., priority 2010, dated 2013).

In turn, `CC1(C)Cc2c(cc(F)cc2C(=O)NS(C)(=O)=O)NC1c1cccc(N2CCOCC2)c1` (stereo not shown) [Example 135, N-[7-Fluoro-3,3-dimethyl-2-(3-morpholin-4-yl-phenyl)-1,2,3,4-tetrahydro-quinoline-5-carbonyl]-methanesulfonamide] gave an E30 of 1.31.

For `CC1(C)Cc2cc(C(=O)O)ccc2NC1c1cccc(-n2cnc3c(c2=O)CCN(Cc2ccccc2)C3)c1` (stereo not shown) [Example 136, 2-[3-(7-Benzyl-4-oxo-5,6,7,8-tetrahydro-4H-pyrido[3,4-d]pyrimidin-3-yl)-phenyl]-3,3-dimethyl-1,2,3,4-tetrahydro-quinoline-6-carboxylic acid], the E30 is listed as 1.3.

As to `CC1(C)Cc2ccc(C(=O)O)c(F)c2NC1c1cccc(N2CCOCC2)c1` (stereo not shown) [Example 137, 8-Fluoro-3,3-dimethyl-2-(3-morpholin-4-yl-phenyl)-1,2,3,4-tetrahydro-quinoline-7-carboxylic acid], the E30 is 1.26.

For `CC1(C)Cc2c(cc(F)cc2C(=O)NS(=O)(=O)C2CC2)NC1c1cccc(N2CCOCC2)c1` (stereo not shown) [Example 138, Cyclopropanesulfonic acid [7-fluoro-3,3-dimethyl-2-(3-morpholin-4-yl-phenyl)-1,2,3,4-tetrahydro-quinoline-5-carbonyl]-amide], the E30 was 1.21.

`CN1CCN(c2cccc(C3Nc4c(cc(Cl)cc4C(=O)NS(=O)(=O)C4CC4)CC3(C)C)c2)CC1` (stereo not shown) [Example 139, Cyclopropanesulfonic acid {6-chloro-3,3-dimethyl-2-[3-(4-methyl-piperazin-1-yl)-phenyl]-1,2,3,4-tetrahydro-quinoline-8-carbonyl}-amide]: the E30 is on record as 1.38.

As for `CC(C)c1ccc(-c2cccc(C3Nc4c(cc(Cl)cc4C(=O)O)CC3(C)C)c2)cc1` (stereo not shown) [Example 140, 6-Chloro-2-(4′-isopropyl-biphenyl-3-yl)-3,3-dimethyl-1,2,3,4-tetrahydro-quinoline-8-carboxylic acid], the E30 is given as 1.34.

In turn, `CN(C)c1ccc(-c2cccc(C3Nc4c(cc(Cl)cc4C(=O)NS(=O)(=O)C4CC4)CC3(C)C)c2)cc1` (stereo not shown) [Example 141, Cyclopropanesulfonic acid [6-chloro-2-(4′-dimethylamino-biphenyl-3-yl)-3,3-dimethyl-1,2,3,4-tetrahydro-quinoline-8-carbonyl]-amide] yielded an E30 of 1.3.

Turning to `CC(C)(C)c1ccc(-c2cccc(C3Nc4c(cc(Cl)cc4C(=O)O)CC3(C)C)c2)cc1` (stereo not shown) [Example 142, 2-(4′-tert-Butyl-biphenyl-3-yl)-6-chloro-3,3-dimethyl-1,2,3,4-tetrahydro-quinoline-8-carboxylic acid], the E30 is 1.54.

As for `CC(C)(C)c1ccc(-c2cccc(C3Nc4c(cc(Cl)cc4C(=O)NS(=O)(=O)C4CC4)CC3(C)C)c2)cc1` (stereo not shown) [Example 143, Cyclopropanesulfonic acid [2-(4′-tert-butyl-biphenyl-3-yl)-6-chloro-3,3-dimethyl-1,2,3,4-tetrahydro-quinoline-8-carbonyl]-amide], the E30 is recorded as 1.33.

With `CC(C)(C)c1ccc(-c2cccc(C3Nc4c(cc(Cl)cc4C(=O)NS(C)(=O)=O)CC3(C)C)c2)cc1` (stereo not shown) [Example 144, N-[2-(4′-tert-Butyl-biphenyl-3-yl)-6-chloro-3,3-dimethyl-1,2,3,4-tetrahydro-quinoline-8-carbonyl]-methanesulfonamide], the E30 was found to be 1.25.

Take `CCc1nnnn1-c1cccc(C2Nc3ccc(C(=O)NS(=O)(=O)C4CC4)cc3CC2(C)C)c1` (stereo not shown) [Example 145, Cyclopropanesulfonic acid {2-[3-(5-ethyl-tetrazol-1-yl)-phenyl]-3,3-dimethyl-1,2,3,4-tetrahydro-quinoline-6-carbonyl}-amide]: the E30 is listed as 1.22.

As to `CCc1nnnn1-c1cccc(C2Nc3ccc(C(=O)NS(C)(=O)=O)cc3CC2(C)C)c1` (stereo not shown) [Example 146, N-{2-[3-(5-Ethyl-tetrazol-1-yl)-phenyl]-3,3-dimethyl-1,2,3,4-tetrahydro-quinoline-6-carbonyl}-methanesulfonamide], the E30 is recorded as 1.21.

Molecule `CC1(C)Cc2cc(C(=O)O)ccc2NC1c1cccc(-n2nnnc2Cc2ccccc2)c1` (stereo not shown) [Example 147, 2-[3-(5-Benzyl-tetrazol-1-yl)-phenyl]-3,3-dimethyl-1,2,3,4-tetrahydro-quinoline-6-carboxylic acid] returned an E30 of 1.35.

Regarding `CCc1nnnn1-c1cccc(C2Nc3ccc(C(=O)O)cc3CC2(C)C)c1` (stereo not shown) [Example 148, 2-[3-(5-Ethyl-tetrazol-1-yl)-phenyl]-3,3-dimethyl-1,2,3,4-tetrahydro-quinoline-6-carboxylic acid], the E30 was determined as 1.3.

In turn, `CC1(C)Cc2c(cc(Cl)cc2C(=O)NS(C)(=O)=O)NC1c1cccc(N2CCOCC2)c1` (stereo not shown) [Example 149, N-[7-Chloro-3,3-dimethyl-2-(3-morpholin-4-yl-phenyl)-1,2,3,4-tetrahydro-quinoline-5-carbonyl]-methanesulfonamide] showed an E30 of 1.26.

In the case of `CC1(C)Cc2c(C(=O)NS(=O)(=O)C3CC3)ccc(F)c2NC1c1cccc(N2CCOCC2)c1` (stereo not shown) [Example 150, Cyclopropanesulfonic acid [8-fluoro-3,3-dimethyl-2-(3-morpholin-4-yl-phenyl)-1,2,3,4-tetrahydro-quinoline-5-carbonyl]-amide], the E30 is 1.22.

As to `CC(C)(C)c1ccc(-c2cccc(C3Nc4ccc(F)c(C(=O)O)c4CC3(C)C)c2)cc1` (stereo not shown) [Example 151, 2-(4′-tert-Butyl-biphenyl-3-yl)-6-fluoro-3,3-dimethyl-1,2,3,4-tetrahydro-quinoline-5-carboxylic acid], the E30 is on record as 1.66.

The molecule `Cc1ccccc1N1CCN(c2cccc(C3Nc4ccc(C(=O)O)cc4CC3(C)C)c2)CC1` (stereo not shown) [Example 152, 3,3-Dimethyl-2-[3-(4-o-tolyl-piperazin-1-yl)-phenyl]-1,2,3,4-tetrahydroquinoline-6-carboxylic acid] came in with an E30 of 1.41.

Molecule `CC1(C)Cc2cc(C(=O)NS(=O)(=O)C3CC3)ccc2NC1c1cccc(N2CC(F)C2)c1` (stereo not shown) [Example 153, Cyclopropanesulfonic acid {2-[3-(3-fluoro-azetidin-1-yl)-phenyl]-3,3-dimethyl-1,2,3,4-tetrahydro-quinoline-6-carbonyl}-amide] showed an E30 of 1.27.

In turn, `CC1(C)Cc2cc(C(=O)NS(C)(=O)=O)ccc2NC1c1cccc(N2CC(F)C2)c1` (stereo not shown) [Example 154, N-{2-[3-(3-Fluoro-azetidin-1-yl)-phenyl]-3,3-dimethyl-1,2,3,4-tetrahydro-quinoline-6-carbonyl}-methanesulfonamide] came in with an E30 of 1.24.

For `Cc1ccccc1N1CCN(c2cccc(C3Nc4ccc(C(=O)NS(C)(=O)=O)cc4CC3(C)C)c2)CC1` (stereo not shown) [Example 155, N-{3,3-Dimethyl-2-[3-(4-o-tolyl-piperazin-1-yl)-phenyl]-1,2,3,4-tetrahydro-quinoline-6-carbonyl}-methanesulfonamide], the E30 turned out to be 1.19.

On to `CC(C)(C)c1ccc(-c2cccc(C3Nc4ccc(F)c(C(=O)NS(=O)(=O)C5CC5)c4CC3(C)C)c2)cc1` (stereo not shown) [Example 156, Cyclopropanesulfonic acid [2-(4′-tert-butyl-biphenyl-3-yl)-6-fluoro-3,3-dimethyl-1,2,3,4-tetrahydro-quinoline-5-carbonyl]-amide], for which the E30 is 1.66.
